Measured values taken from patent US20220273660A1, “MEK INHIBITOR FOR TREATMENT OF STROKE” (EDVINCE AB, priority 2019, published 2022).
Entries after “also recorded” stand apart in the source; their conditions may differ.

What was measured:
[1] = tested on: rat basilar arteries (contractile ETB receptors); assay: 48 h organ culture of basilar artery, S6c (ETB agonist)-induced contraction in wire myograph; assay type: cell-based; conditions: for inhibition of S6c-induced contraction (initial screening groups): 1 μM inhibitor, S6c contraction relative to 60 mM K+; for inhibition of S6c-induced contraction (initial screening groups) / IC50: 48 h organ culture; for IC50: Rattus norvegicus, inhibition of S6c-induced contraction, read-out: pIC50 (based on the Emax for S6c) (converted)
Experimental: (§1) Rats were sedated with O2/CO2 (30/70%) and sacrificed by decapitation. Brains were gently removed and chilled in a cold oxygenated buffer solution of the following composition: 119 mM NaCl, 4.6 mM KCl, 1.5 mM CaCl2, 1.2 mM MgCl2, 1.2 mM NaH2PO4, 15 mM NaHCO3 and 5.5 mM Glucose; pH 7.4. The basilar artery (BA) was carefully dissected from the brain in a physiological buffer solution followed by either OC (naïve animals) or directly mounted in a wire myograph (arteries from rats which has undergone surgical procedures). Segments were incubated for 48 hours at 37° C. in humidified 5% CO2/O2 in DMEM supplemented with streptomycin and penicillin with inhibitors or vehicle (DMSO). Culture media was changed after 24 hours.
(§2) For contractility measurements, both incubated BAs (ex vivo) and BAs after surgical procedure (in vivo) were cut into segments and mounted on a pair of metal wires (40 μm) in a myograph bath. The arteries from OC were mounted the same way after 48 hours in media. One wire was attached to a micro-meter screw which allows for fine adjustments of the distance between the wires, controlling the vascular tone.
(§3) The segments were equilibrated in physiological buffer aerated with 95% O2/5% CO2, pH of 7.4, temperature set at 37° C. and the wires were separated for isometric pretension at 2 Nm^−1. The arterial segments were exposed two or three times with 60 mM K^+, by exchanging the buffer with a 60 mM K^+ buffer solution. To maintain equal osmolarity, a proportional amount of Na^+ had been removed from the buffer. An absolute cut-off was set at 2.0 mN K^+max for inclusion of arterial segments from rats that underwent the surgical procedure. Endothelium function was evaluated with the addition of 5-HT (3.10^−7 M) followed by carbachol (10^−5 M). For arteries from the OC the protocol was as followed: first a cumulative concentration-response curve to sarafotoxin 6C (S6c, 10^−14-10^−7 M), followed by a concentration-response curve to endothelin-1 (ET-1, 10^−14-10^−7 M). At peak ET-1 (10^−7 M), the buffer was changed to a Ca^2+-free buffer containing 10^−7 M ET-1 and nimodipine (L-type of voltage dependent Ca^2+ channel entry blocker, 10^−7 M). A concentration-response curve to Ca^2+ (0.0125-3 mM) was then performed. When vasodilation was investigated arteries was precontracted with U46619 (1.10^−7-3.10^−7 M) or K^+ (41 mM) and cumulative concentration-response curves was performed by adding calcitonin gene-related peptide (CGRP, 10^−12-10^−7 M), carbachol (10^−10-10^−5 M) or SNP (10^−11-10^−4 M).
(§4) Contractile responses of each segment were adjusted according to the length of the artery and are expressed as mN/mm (Nm^−1). […] To compare ET-1 sensitivity, arteries were normalized to the percentage of the individual vessel ET-1max. When the artery reached maximum contraction before the last concentration was added, the curves were constrained to the max contraction. The relative log IC50/log EC50 is the concentration corresponding to a response midway between the estimates of the lower and upper plateaus. The Emax is the maximal contraction in the concentration response curve and ET-1max is the maximal contraction to ET-1. All quantitative data is presented as mean±standard error of the mean (SEM), unless otherwise stated.

rat basilar arteries = assay: 48 h organ culture of basilar artery, endothelium function / vasodilation (carbachol, SNP, CGRP); assay type: cell-based; conditions: 1 μM inhibitor; for endothelium function (10-5 M carbachol on arteries precontracted with 5-HT) vs DMSO: 48 h organ culture
Experimental: as §1, with “Brains were gently removed and chilled in a cold oxygenated buffer solution of the following composition: 119 mM NaCl, 4.6 mM KCl, 1.5 mM CaCl2, 1.2 mM MgCl2, 1.2 mM NaH2PO4, 15 mM NaHCO3 and 5.5 mM Glucose; pH 7.4.” left out
as §2
as §3, with “The” for “The segments were equilibrated in physiological buffer aerated with 95% O2/5% CO2, pH of 7.4, temperature set at 37° C. and the wires were separated for isometric pretension at 2 Nm^−1. The”, “A concentration-response curve to Ca^2+ (0.0125-3 mM) was then performed.” left out

Solubility (statement) = assay type: physicochemical
[2] = tested on: rat basilar arteries (contractile ETB receptors); conditions: cited from earlier work
[3] = tested on: rat middle cerebral arteries (ETB receptor); conditions: former studies, same in vitro setup; cited from earlier work
[4] = tested on: rat middle cerebral arteries; assay: Contraction of middle cerebral arteries 48 h after tMCAO, wire myograph; conditions: for agonist-mediated contraction (% of maximum potassium-mediated contraction): occluded MCAs, 48 h after tMCAO, mean±SD
Experimental: Mean arterial blood pressure, pCO2, pO2, pH and plasma glucose were measured prior to the occlusion through an arterial tail catheter (Radiometer; LabChart). A rectal thermometer connected to a homoeothermic blanket was used to maintain body temperature at +37° C. during the surgical procedure. An incision was made in the midline of the neck exposing the right common, internal and external carotid arteries. The common and external carotid arteries were permanently ligated by sutures and an incision was made in the common carotid artery. A laser Doppler probe (Perimed, Järfälla, Sweden) was fixed to the thinned skull in the area corresponding to the area supplied by the middle cerebral artery (1 mm posterior to bregma and 6 mm to the right from the midline). A silicone, rubber-coated monofilament (Doccol Corporation, Redlands, Calif., USA) was inserted through the incision until the tip reached the entrance of the right middle cerebral artery (MCA). The occlusion was confirmed by an abrupt reduction of cortical blood flow that was observed using laser Doppler monitoring. After securing the filament, the skin was sutured and anesthesia was discontinued. After two hours of occlusion, the rats were briefly re-anesthetized to remove the filament and allow reperfusion. […] The animals were allowed to recover 48 hours after surgery with free access to food and water before they were anesthetized with CO2 and decapitated. The brains were removed and immediately chilled in ice-cold bicarbonate buffer solution (for composition, see Drugs, Chemicals and Solutions). Right (occluded) and left (non-occluded) middle cerebral arteries were dissected free from adhering tissue and used for myograph studies.
Contractile properties of middle cerebral arteries were examined using a wire Mulvany-Halpern myograph that records isometric tension (Danish Myo Technology A/S, Aarhus, Denmark). Arteries were cut into cylindrical segments (2 mm), and mounted in the myographs by two parallel 40 μm wires inserted through the lumen. The myograph baths contained 5 ml +37° C. bicarbonate buffer solution (for composition, see Drugs, Chemicals and Solutions) continuously aerated with 5% carbon dioxide in oxygen resulting in pH 7.4. […] The other wire was connected to a force displacement transducer attached to an analogue-digital converter (AD Instruments, Chalgrove, UK). The results were recorded on a computer using a Power Lab unit (AD instruments) and the software LabChart (ADInstruments). After the normalization procedure, the arteries were allowed to equilibrate at this tension for 20 min.
The maximum potassium-mediated contraction was used as a reference value (=100%) for contractile capacity. To eliminate endothelial influence, the production of nitric oxide and prostaglandins was blocked with 100 μM L-NG-nitroarginine methyl ester (L-NAME) and 10 μM indomethacin, respectively, which were present in the tissue baths throughout the experiments on the arteries from the in vivo stroke model.
Receptors for 5-hydroxytryptamine receptors (5-HT) were evaluated by adding 5-carboxamidotryptamine (5-CT, a non-selective 5-HT1 agonist) in concentrations ranging from 10^−11 to 10^−5M (Hansen-Schwartz). The angiotensin type 1 (AT1) receptor was evaluated by cumulative applications of Angiotensin II in concentrations ranging from 10^−12 to 10^−6 M. 30 minutes prior to the experiment, the AT2 receptor antagonist PD123319 was added to eliminate any AT2 receptor-mediated effects. […]

[5] = tested on: rat subarachnoid haemorrhage model; assay: Rat SAH model, intrathecal treatment, myograph of basilar arteries; assay type: in vivo
Experimental: as §2
as §3, with “The” for “The segments were equilibrated in physiological buffer aerated with 95% O2/5% CO2, pH of 7.4, temperature set at 37° C. and the wires were separated for isometric pretension at 2 Nm^−1. The”, “A concentration-response curve to Ca^2+ (0.0125-3 mM) was then performed.” left out
If there was only one curve above the cut-off, the concentration-response curve to ET-1 was prioritized. Segments with the highest K^+ response were generally allocated to the concentration-response curve to ET-1. […] The Ca^2+ free buffer solution had similar composition as above, but 1.5 mM CaCl2 was exchanged with 0.03 mM EDTA.
as §4
Rats were anesthetized and prepared for cisternal infusion of autologous blood, which simulates a SAH. Sham-operated rats went through the same procedure, omitting the intracisternal blood injection of 300 μL. At the end of the procedure, a PinPort (PNP3F22, Instech, US) was placed at the end of the ICP catheter to provide access for intrathecal (i.t.) injectable treatments by a PinPort injector (PNP-3M, Instech, US). 24 hours post-surgery, the rats received s.c. injections of Carprofen (Norodyl, 5 mg/kg) (Scanvet, Denmark) for analgesia.
The intrathecal (i.t.) treatment volumes were estimated for a cerebrospinal fluid (CSF) volume of approximately 90 μL (21) and the total dose was administered as three treatments (4 hours, 10 hours and 24 hours) through the PinPort in the ICP catheter placed in the cisterna magna during the surgical procedure. The first and third injections were given under fixation of the rat. […] Animals were given 2.5 ml isotonic saline s.c. to avoid dehydration, immediately after surgery and in conjunction with the 10 hours and 24 hours treatments.

Molecule | inhibition of S6c-induced contraction (initial screening groups) [1] | endothelium function (10-5 M carbachol on arteries precontracted with 5-HT) vs DMSO (rat basilar arteries) | IC50 [1] [µM] | other results
N#CC(=C(/N)Sc1ccccc1N)/C(C#N)=C(\N)Sc1ccccc1N [U0126] | Not effective; also recorded: no significant effect | poor endothelial response | – | solubility (Solubility (statement)): poor solubility; effect on ETB specific S6c-induced contractility ([2]; 10 μM, 48 hours OC, known from earlier work): inhibitory effect; established threshold for efficacy ([2]; used till date): 10 µM; concentration used for equivalent inhibition of ETB-receptor mediated contraction [3]: 10 µM
NCCc1c[nH]c2ccc(C(N)=O)cc12 [5-CT, 5-carboxamidotryptamine] | – | – | – | agonist-mediated contraction (% of maximum potassium-mediated contraction) ([4]; intact females): 27±18%; agonist-mediated contraction (% of maximum potassium-mediated contraction) ([4]; ovariectomized females): 8±11%
sarafotoxin 6c [S6c] | – | – | – | agonist-mediated contraction (% of maximum potassium-mediated contraction) ([4]; intact females): 22±16%; agonist-mediated contraction (% of maximum potassium-mediated contraction) ([4]; ovariectomized females): 8±9%
CNS(=O)(=O)Nc1nccc(Cc2c(C)c3ccc(Oc4ncccn4)cc3oc2=O)c1F [RO5126766] | Some effect | – | 2.09 | –
COc1cc(F)c(F)c(Nc2ccc(I)cc2F)c1NS(=O)(=O)C1(C[C@H](O)CO)CC1 [Refametinib] | Borderline effective | – | – | –
O=C(NOC[C@H](O)CO)c1ccc(F)c(F)c1Nc1ccc(I)cc1F [PD0325901] | Highly effective; also recorded: almost completely inhibited | significant better endothelium function; also recorded: significant increase | 0.0195 | estimated inhibitor effect in the ex vivo OC study ([1]; at predicted CSF concentration of approximately 10^-7 M): ~75%; Emax following NO donor sodium nitroprusside (SNP) (rat basilar arteries; 48 h OC): significant differences in the Emax; response to CGRP (rat basilar arteries; 48 h OC): No differences; vasodilation in response to carbachol (10^-10-10^-5 M) (rat basilar arteries; 48 h OC, precontracted with U46619 or K+): improved vasodilation; nimodipine insensitive ET-1max contraction ([5]; SAH + i.t. treatment, Ca2+ curve, 10^-7 M nimodipine): 1.0±0.3 Nm^−1; endothelium function ([5]; animals treated in vivo i.t. after SAH): No significant changes
CC(=O)[C@H]1CC[C@H]2[C@@H]3CCC4=CC(=O)CC[C@]4(C)[C@H]3CC[C@]12C [progesterone] | – | – | – | maximum contractile responses of occluded and non-occluded arteries to S6c, Ang II or 5-CT vs placebo ([4]; ovariectomized rats treated 3 weeks, tMCAO): not affected
Cn1cnc2c(F)c(Nc3ccc(Br)cc3F)c(C(=O)NOCCO)cc21 [Binimetinib] | Some effect | – | 6.76 | –
Cn1c(=O)c(F)c(Nc2ccc(I)cc2F)c2c(=O)n(C[C@@H](O)CO)cnc21 [TAK-733] | Highly effective | significant better endothelium function; also recorded: significant increase | 0.129 | –
O=C(c1ccc(F)c(F)c1Nc1ccc(I)cc1F)N1CC(O)([C@@H]2CCCCN2)C1 [Cobimetinib] | Highly effective | – | 0.0562 | –
